“Also recorded” adds a separate entry of the source.
Legend:
adult S. mansoni worms = experiment: Ex vivo adult S. mansoni phenotypic screen (descriptors and severity scores); design: species or system Schistosoma mansoni; key to Descriptors 2 h / Descriptors 5 h / Descriptors 24 h: degenerating (deg); uncoordinated (unc); slow (S); on sides, inability of worms to adhere to well floor with either the oral or ventral sucker; teg bleb, damage to the surface tegument; conditions: 10 μM compound; for Descriptors 2 h / Descriptors 5 h / Descriptors 24 h: ex vivo adult worms
Experimental: The 12 compounds identified from the SPR screen were tested against ex vivo adult S. mansoni worms to investigate whether they induce phenotypic alterations in the parasite. Compound effects at 10 μM were assessed at 2, 5, and 24 h, and activity was partially quantified using an observation-based severity scoring system that is designed to holistically assess the many different responses to chemical insult of which the schistosome is capable.[26],[27] For those compounds eliciting phenotypic changes, WormAssay was also employed as an additional readout to measure average worm motility per well.[28],[29] Four compounds, GW696155, GSK986310, GSK1520489, and SB-710363, produced a variety of effects in the worm (Figure 1; Table 2; Table S1). GW696155 generated the strongest responses. […] Although, SPR identified 12 compounds against the SmVKR2KD (Table 1), the absence of phenotypic activity for eight of these compounds (Table S2) could be due to their poor uptake by the parasite. It is also possible that the phenotypic changes noted for the four active compounds are only partially related or unrelated to engagement of the SmVKR2 target. […]
Preparation of S. mansoni
The acquisition, preparation and in vitro maintenance of S. mansoni have been described 11, 12.
We use a Naval Medical Research Institute (NMRI) isolate of S. mansoni that is cycled between Biomphalaria glabrata snails and male Golden Syrian hamsters (infected at 4-6 weeks of age) as intermediate and definitive hosts, respectively. Briefly, adult worms were harvested from hamsters 42 days post-infection in RPMI or DMEM, and washed five times prior to maintenance overnight at 37 °C and 5% CO2 in Basch medium 13 containing 4% heat-inactivated FBS, 100 μg/ml streptomycin and 100 U/ml penicillin. activity against adult Ex vivoS. mansoni
Ex vivo screens with adults employed 24-well flat-bottomed plates and approximately five males, two to three of which were paired to females. Screens incorporated a final compound concentration of 10 μM in DMSO (0.5% final concentration). The complex and often dynamic phenotypic responses that the schistosome parasite is capable of were observed using a Zeiss Axiovert A1 inverted microscope at 2, 5 and 24 h. Observations were classified using a constrained nomenclature that involves simple “descriptors” to convey changes in shape, motility and appearance, and the inability of the male worm to adhere to the bottom of the well, compared to DMSO controls 11, 14, 15. Each descriptor was given a value of 1 and these were added up to yield a “severity score” with a maximum of 4. Evidence of degeneracy or death was awarded a value of 4 as was damage to the tegument (surface), on the understanding this would compromise survival in vivo. Scores were averaged across 3-5 individual experiments.

adult S. mansoni = experiment: WormAssay average worm motility per well; design: species or system Schistosoma mansoni; conditions: 10 μM compound, 2, 5 and 24 h
Experimental: The 12 compounds identified from the SPR screen were tested against ex vivo adult S. mansoni worms to investigate whether they induce phenotypic alterations in the parasite. Compound effects at 10 μM were assessed at 2, 5, and 24 h, and activity was partially quantified using an observation-based severity scoring system that is designed to holistically assess the many different responses to chemical insult of which the schistosome is capable.[26],[27] For those compounds eliciting phenotypic changes, WormAssay was also employed as an additional readout to measure average worm motility per well.[28],[29] Four compounds, GW696155, GSK986310, GSK1520489, and SB-710363, produced a variety of effects in the worm (Figure 1; Table 2; Table S1). GW696155 generated the strongest responses. […] Although, SPR identified 12 compounds against the SmVKR2KD (Table 1), the absence of phenotypic activity for eight of these compounds (Table S2) could be due to their poor uptake by the parasite. It is also possible that the phenotypic changes noted for the four active compounds are only partially related or unrelated to engagement of the SmVKR2 target.
Figure 1 Changes in the average motility of adult S. mansoni as a function of time, as measured by WormAssay. Significance was determined by Student’s t-test (two-tailed): *P < 0.05, **p < 0.005, ***P < 0.0005. Data were derived from three to five biological assays with 10 μM compound. […]
The assay was performed according to the manufacturer’s recommendations without any modifications. The optimal concentration of the SmVKR2KD in the assay was established as µM. The autophosphorylation activity was measured at an ATP concentration of […] to aid the identification of competitive inhibitors as recommended by the ADP-Glo Kinase Assay (Promega) protocol. The autophosphorylation activity of the SmVKR2KD was measured in the presence and absence of inhibitors at various concentrations. […] The luminescence was measured using a CLARIOstar plate reader. […]

SmVKR1 = tested on: SmVKR1; design: method as in PMID 23696913; conditions: cited from earlier work
SmVKR2 = tested on: SmVKR2; design: method as in PMID 23696913; conditions: cited from earlier work
schistosomes = tested on: schistosomes; design: method as in PMID 23696913; conditions: cited from earlier work

SMILES	Descriptors 2 h (adult S. mansoni worms)	Severity scores 2 h (adult S. mansoni worms; maximum score 4)	Descriptors 5 h (adult S. mansoni worms)	Severity scores 5 h (adult S. mansoni worms; maximum score 4)	Descriptors 24 h (adult S. mansoni worms)	Severity scores 24 h (adult S. mansoni worms; maximum score 4)	average worm motility (WormAssay) (adult S. mansoni)	phenotypic activity assessed visually (adult S. mansoni worms; time not stated)	inhibition of SmVKR1 (SmVKR1)	inhibition of SmVKR2 (SmVKR2)	apoptosis and egg production in schistosomes (schistosomes)	severity score (adult S. mansoni worms; time not given, maximum score 4)
Cc1cccc(Nc2nc(NCCN)ncc2C(N)=O)c1 [GSK1292139]	none	0	none	0	none	0						
CC(C)Oc1ccc2c(-c3ccnc(Nc4ccc(N5CCN(C)CC5)cc4)n3)cnn2n1 [GW696155]	decreased motility and lost their ability to adhere to the floor of the well; also recorded: S, on sides	2	Dark, S, on sides	3	worm degeneration and damage to the surface tegument in the form of blebs or bubbles; also recorded: Deg, S, on sides, teg bleb	4	decrease in average worm motility over time					
CNC(=O)c1ccccc1Nc1nc(Nc2cccc(CS(C)(=O)=O)c2)ncc1C [GSK1520489]	unc	1	unc	1	unc	1	without a long-term decrease in average motility	mild uncoordinated motility				
NC(=O)Nc1sc(-c2ccc(F)cc2)cc1C(N)=O [GW789449]	none	0	none	0	none	0						
Nc1nc(N)c2[nH]c(-c3ccccc3)nc2n1 [SKF-12778]	none	0	none	0	none	0						
CC(C)(C)c1cc(C=C(C#N)C#N)cc(Br)c1O [tyrphostin AG1024]									inhibited	inhibited	concentration-dependent apoptosis and cessation of egg production	
CS(=O)(=O)Nc1ccc(-c2ccnc3[nH]ccc23)cc1 [GSK993273]	none	0	none	0	none	0						
Cc1n[nH]c2cc(Nc3ccnc(Nc4cccc(CN5CCOCC5)c4)n3)ccc12 [GW682569]	none	0	none	0	none	0						
Nc1n[nH]c2cnc(-c3ccccc3)cc12 [SB-642124]	none	0	none	0	none	0						
CN(C)CCNS(=O)(=O)c1ccc(-c2ccnc3[nH]ccc23)cc1 [GSK977620]	none	0	none	0	none	0						
Cc1cccc(Nc2nc(N[C@H]3CCCC[C@H]3N)ncc2C(N)=O)c1 [GSK986310]	S	1	S	1	S	1	milder effect in decreasing worm movement					1
NCCNS(=O)(=O)c1ccc(-c2ccnc3[nH]ccc23)cc1 [GSK977617]	none	0	none	0	none	0						
